Measurements reported in patent US20090232942A1, “Yeast Preparations With Improved Antioxidant Properties and Uses Thereof” (priority 2005, published 2009).
≈ marks a conversion by molar mass, not a printed value.

Legend:
Type in all cases: biochemical
[1] = Reduction of the DPPH radical, inhibition of absorbance at 523 nm (UV-visible); conditions: for IC50 Mean: n = 3
Source text: DPPH. has an intense violet color and this compound remains stable, in the solid form, for years. An antioxidant, proton donor, is capable of reducing this radical (DPPH.→DPPH2), which leads to a decrease in its absorbance. The antioxidant capacity of the compounds is thus determined by evaluating the percentage of inhibition of the absorbance of DPPH. at 523 nm. […] The DPPH. sold by Aldrich and the vitamin C sold by Merck were used. In these tests, the selenium and glutathione concentrations were such that the solution of E2 contained as much selenium and glutathione as that of E1. The method used made it possible to evaluate the overall antioxidant power of the mixture and to compare it to that of reference substances under the same experimental conditions. The antioxidant activity was evaluated by measuring the capacity of the extract to trap the […].

LDL/VLDL [2] = assay: Bound LAG TIME: samples incubated 2 hours with LDL/VLDL before Cu2+-induced oxidation; conditions: 1 μM of sample; for Lag Time: bound (2 hours incubation with LDL/VLDL at ambient temperature), 25 μM Cu2+; for Increase of Lag Time 1 (%) / Increase of Lag Time 2 (%): bound; for Increase of Lag Time 1 (%): relative to control (LDL alone); for Increase of Lag Time 2 (%): relative to the unbound sample
Description: The LDLs and the various antioxidants were inoculated so that bonds were created. This phenomenon is supposed to represent what happens in the plasma when an antioxidant having the ability to bind is absorbed.
The various samples and the LDL/VLDL preparation were diluted to 1 μM and 70 μg/ml respectively in PBS, then incubated at ambient temperature for 2 hours. Next, 25 μM of Cu^2+ (final concentration in the solution) were added and mixed and the absorbance measurement was carried out every 5 minutes for 6 to 8 hours. The absorbance of the samples was measured at a wavelength of 234 nm over 10 min on a Genesys 5 machine. The tocopherol was used as a positive control given that it is known for binding to the LDL which is generally a tocopherol carrier in plasma.

LDL/VLDL [3] = assay: LAG-TIME method: Cu2+-induced oxidation of LDL/VLDL, absorbance at 234 nm, unbound samples; conditions: 1 μM of sample; for Lag Time: 70 μg/ml LDL/VLDL, 25 μM Cu2+, 234 nm; for Increase of Lag Time 1 (%): relative to control (LDL alone)
Description: It makes it possible to measure the time required for the added antioxidants to oxidize. […] The effect of the antioxidant present is all the stronger when the lag time is long (in seconds). The kinetic analysis was carried out at 234 nm. The various samples were brought to the same concentration of 1 μm.
The mixture was subjected to Vortex stirring for 5 minutes, then to centrifugation for 10 minutes. […] of supernatant was recovered. This product was ready to use. (sample No. 7 was ground into a fine powder before being mixed with water).
The procedure described in the publication J. Agric. […] This experiment thus made it possible to measure the capacity of the antioxidant tested to inhibit oxidation.
The LDL/VLDL preparation and the various samples were diluted in PBS in order to obtain the desired concentration (70 μg/ml of LDL/VLDL). The control batch contained only the 70 μg/ml LDL/VLDL preparation and PBS. The absorbance of the PBS, the control batch and the other samples was carried out at a wavelength of 234 nm over 10 min on a Genesys 5 machine. Next, 25 μM of Cu^2+ (final concentration in the solution) were added and mixed and the absorbance measurement was carried out every 5 minutes for 6 to 8 hours.

Compound	IC50 Mean ([1]; Time 10 min) [µg/mL]	IC50 Mean ([1]; Time 20 min) [µg/mL]	IC50 Mean ([1]; Time 30 min) [µg/mL]	Lag Time (LDL/VLDL [2]) [s]	Increase of Lag Time 1 (%) (LDL/VLDL [2])	Increase of Lag Time 2 (%) (LDL/VLDL [2])	inhibition of LDL oxidation in comparison to the control (in words) (LDL/VLDL [3])	Lag Time (LDL/VLDL [3]) [s]	Increase of Lag Time 1 (%) (LDL/VLDL [3])	IC50 times higher than that for vitamin C ([1]; 30 min value) [times]
O=C1O[C@H]([C@@H](O)CO)C(O)=C1O [Vitamin C, vitamin C]	5.24 (≈ 29.8 µM)	5.20 (≈ 29.5 µM)	5.16 (≈ 29.3 µM)	–	–	–	–	–	–	–
tocopherol	–	–	–	20940	590	187	high levels of inhibition	7285	140	–
N[C@@H](CCC(=O)N[C@@H](CS)C(=O)NCC(=O)O)C(=O)O [Glutathione]	292.97 (≈ 953 µM)	233.84 (≈ 761 µM)	202.13 (≈ 658 µM)	–	–	–	–	–	–	40
C[Se]CC[C@H](N)C(=O)O [selenomethionine]	–	–	–	6267	106	123	did not show signs of inhibition	2805	−8	–
